Experimental data as given in ChEMBL document CHEMBL1201862, “PubChem BioAssay data set” (2004).
The source made the active and inactive calls.

What was measured:
[1] = biological target: Mitogen-activated protein kinase 10 (Homo sapiens, UniProt P53779); experiment: Dose response biochemical screening assay for inhibitors of c-Jun N-Terminal Kinase 3 (JNK3). [Related pubchem assays: 746 ]
[2] = biological target: Peroxisome proliferator-activated receptor gamma/Nuclear receptor coactivator 1 (Homo sapiens, UniProt P37231); assay type: functional;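 note: agonist potency as compounds enhance coactivator SRC-1 recruitment to PPARgamma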
Sequence of Peroxisome proliferator-activated receptor gamma/Nuclear receptor coactivator 1 (P37231 whole entry): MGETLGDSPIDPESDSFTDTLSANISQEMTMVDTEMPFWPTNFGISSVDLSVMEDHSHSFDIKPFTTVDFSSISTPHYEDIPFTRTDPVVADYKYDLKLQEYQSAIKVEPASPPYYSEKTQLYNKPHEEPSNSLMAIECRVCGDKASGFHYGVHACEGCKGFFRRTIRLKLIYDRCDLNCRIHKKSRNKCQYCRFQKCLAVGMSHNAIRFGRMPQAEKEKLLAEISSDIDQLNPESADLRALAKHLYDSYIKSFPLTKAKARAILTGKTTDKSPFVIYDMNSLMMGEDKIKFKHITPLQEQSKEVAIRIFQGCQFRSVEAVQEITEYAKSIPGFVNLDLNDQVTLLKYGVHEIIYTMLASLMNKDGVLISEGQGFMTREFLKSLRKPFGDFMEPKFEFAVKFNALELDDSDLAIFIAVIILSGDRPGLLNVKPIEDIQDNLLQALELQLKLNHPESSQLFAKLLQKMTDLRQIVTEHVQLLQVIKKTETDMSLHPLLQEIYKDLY
Sequence of Peroxisome proliferator-activated receptor gamma/Nuclear receptor coactivator 1 (Q15788 whole entry, further chain): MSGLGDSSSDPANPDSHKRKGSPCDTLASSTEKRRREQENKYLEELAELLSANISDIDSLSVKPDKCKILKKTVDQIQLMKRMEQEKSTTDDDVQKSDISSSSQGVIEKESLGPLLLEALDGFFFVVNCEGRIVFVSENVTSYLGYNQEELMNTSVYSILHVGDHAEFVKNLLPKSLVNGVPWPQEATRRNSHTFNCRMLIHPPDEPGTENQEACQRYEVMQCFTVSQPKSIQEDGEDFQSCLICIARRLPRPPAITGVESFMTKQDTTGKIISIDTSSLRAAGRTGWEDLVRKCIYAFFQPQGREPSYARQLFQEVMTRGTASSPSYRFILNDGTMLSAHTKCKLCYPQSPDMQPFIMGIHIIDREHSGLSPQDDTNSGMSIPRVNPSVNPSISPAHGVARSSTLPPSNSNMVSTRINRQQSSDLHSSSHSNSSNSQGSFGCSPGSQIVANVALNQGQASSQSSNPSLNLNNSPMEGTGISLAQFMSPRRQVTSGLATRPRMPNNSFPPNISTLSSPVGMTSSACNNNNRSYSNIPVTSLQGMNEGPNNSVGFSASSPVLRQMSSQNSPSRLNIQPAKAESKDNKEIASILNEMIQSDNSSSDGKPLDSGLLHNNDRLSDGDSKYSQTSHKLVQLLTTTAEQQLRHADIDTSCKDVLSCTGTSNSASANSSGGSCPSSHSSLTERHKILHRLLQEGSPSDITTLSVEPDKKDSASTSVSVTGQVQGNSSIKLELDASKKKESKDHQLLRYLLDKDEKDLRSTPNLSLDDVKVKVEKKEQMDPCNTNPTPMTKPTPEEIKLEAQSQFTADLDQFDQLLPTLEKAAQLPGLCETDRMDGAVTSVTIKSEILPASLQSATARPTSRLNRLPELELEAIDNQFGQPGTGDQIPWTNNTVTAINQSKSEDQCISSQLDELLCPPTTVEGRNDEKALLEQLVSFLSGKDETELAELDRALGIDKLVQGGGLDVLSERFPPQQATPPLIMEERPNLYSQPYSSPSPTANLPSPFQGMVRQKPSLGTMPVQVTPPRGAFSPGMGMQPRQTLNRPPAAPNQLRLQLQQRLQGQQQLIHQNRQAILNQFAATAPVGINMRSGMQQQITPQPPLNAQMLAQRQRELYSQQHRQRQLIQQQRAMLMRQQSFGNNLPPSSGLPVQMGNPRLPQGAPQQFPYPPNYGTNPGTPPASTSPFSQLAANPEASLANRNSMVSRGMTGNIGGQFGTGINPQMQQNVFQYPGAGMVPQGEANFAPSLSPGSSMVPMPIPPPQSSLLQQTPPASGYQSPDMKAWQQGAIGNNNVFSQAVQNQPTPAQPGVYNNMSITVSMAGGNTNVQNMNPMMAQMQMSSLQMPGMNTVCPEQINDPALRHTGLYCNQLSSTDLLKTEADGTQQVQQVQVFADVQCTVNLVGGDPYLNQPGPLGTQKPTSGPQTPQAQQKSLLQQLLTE

[3] = biological target: Peroxisome proliferator-activated receptor gamma/Nuclear receptor coactivator 3 (Homo sapiens, UniProt P37231); assay type: functional;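 note: agonist potency for raising coactivator recruitment to the receptor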
[4] = biological target: Peroxisome proliferator-activated receptor gamma/Nuclear receptor coactivator 2 (Homo sapiens, UniProt P37231); assay type: functional;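 note: agonist potency for raising coactivator recruitment to the receptor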
Sequence of Peroxisome proliferator-activated receptor gamma/Nuclear receptor coactivator 2 (P37231 whole entry): as the sequence (P37231 whole entry) above
Sequence of Peroxisome proliferator-activated receptor gamma/Nuclear receptor coactivator 2 (Q15596 whole entry, further chain): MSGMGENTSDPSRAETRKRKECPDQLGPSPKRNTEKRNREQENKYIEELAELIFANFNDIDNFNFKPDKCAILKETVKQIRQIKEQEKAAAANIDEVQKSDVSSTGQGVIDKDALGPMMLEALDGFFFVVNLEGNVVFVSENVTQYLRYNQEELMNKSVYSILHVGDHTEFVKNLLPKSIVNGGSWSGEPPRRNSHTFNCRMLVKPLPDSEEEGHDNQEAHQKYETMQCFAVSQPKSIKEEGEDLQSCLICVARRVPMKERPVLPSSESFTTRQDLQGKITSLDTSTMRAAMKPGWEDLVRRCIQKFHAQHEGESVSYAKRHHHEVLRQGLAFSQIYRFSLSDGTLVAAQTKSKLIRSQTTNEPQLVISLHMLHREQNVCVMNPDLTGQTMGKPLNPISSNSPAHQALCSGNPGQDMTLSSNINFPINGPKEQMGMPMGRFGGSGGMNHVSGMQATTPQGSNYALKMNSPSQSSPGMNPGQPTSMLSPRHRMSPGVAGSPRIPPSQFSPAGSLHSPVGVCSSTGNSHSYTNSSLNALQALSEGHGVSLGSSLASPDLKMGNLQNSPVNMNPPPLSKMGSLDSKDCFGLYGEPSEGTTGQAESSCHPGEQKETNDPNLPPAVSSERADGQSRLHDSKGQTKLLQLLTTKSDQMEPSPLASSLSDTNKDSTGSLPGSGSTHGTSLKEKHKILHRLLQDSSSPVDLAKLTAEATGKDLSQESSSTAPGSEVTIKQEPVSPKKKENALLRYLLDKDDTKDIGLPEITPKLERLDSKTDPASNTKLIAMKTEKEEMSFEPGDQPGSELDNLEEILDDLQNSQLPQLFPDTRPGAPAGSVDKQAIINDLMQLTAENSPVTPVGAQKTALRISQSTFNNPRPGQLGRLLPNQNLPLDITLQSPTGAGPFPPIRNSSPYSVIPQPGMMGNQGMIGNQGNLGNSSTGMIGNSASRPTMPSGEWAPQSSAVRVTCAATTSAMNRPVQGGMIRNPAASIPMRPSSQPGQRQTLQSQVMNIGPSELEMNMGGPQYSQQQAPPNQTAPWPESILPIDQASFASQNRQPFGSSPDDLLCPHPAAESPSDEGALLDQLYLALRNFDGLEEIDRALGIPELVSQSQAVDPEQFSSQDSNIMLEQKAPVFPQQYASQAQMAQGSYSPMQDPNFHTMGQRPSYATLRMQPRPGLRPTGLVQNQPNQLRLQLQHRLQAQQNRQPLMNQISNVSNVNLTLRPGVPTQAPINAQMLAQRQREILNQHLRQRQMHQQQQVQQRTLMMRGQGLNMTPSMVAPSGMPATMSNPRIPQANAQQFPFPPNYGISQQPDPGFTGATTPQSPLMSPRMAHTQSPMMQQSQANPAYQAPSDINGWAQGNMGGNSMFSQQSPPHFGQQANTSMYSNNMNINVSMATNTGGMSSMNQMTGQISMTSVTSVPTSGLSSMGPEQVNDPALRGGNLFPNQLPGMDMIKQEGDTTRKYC

cells [5] = assay type: functional, cell-based
cells [6] = assay type: functional, cell-based; remark: listed apart in the source
H4 = experiment: Luminescence Cell-Based Dose Response HTS to Identify Activators of 5'UTR Stem-Loop Driven Prion Protein mRNA Translation in H4 Neuroglioblastoma Cells. [Related pubchem assays: 1829 (Project Summary), 1814 (Primary HTS)]; assay type: functional; conditions: Homo sapiens
[7] = HIV-1 Vif–A3G interaction blockers – biochemical, TR-FRET, GST-Vif 1-94, biotin-A3G peptide, dose response retest, primary screen (AID 1117319); assay type: functional;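 note: TR-FRET signal of purified GST-Vif binding a biotinylated A3G peptide; inhibitors lower the FRET signal by blocking Vif and A3G binding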
[8] = Luminescence Cell-Based Dose Response HTS to Identify Activators of Luciferase Translation or Activity in H4 […] Cells. [Related pubchem assays: 1829 (Project Summary), 1814 (Primary HTS)]; assay type: functional
[9] = Luminescence Cell-Based Dose Confirmation HTS to Identify Activators of 5'UTR Stem-Loop Driven Alpha-Synuclein mRNA Translation in H4 Neuroglioblastoma Cells. [Related pubchem assays: 1829 (Project Summary), 1814 (Primary HTS)]; assay type: functional
[10] = biological target: T1, Short transient receptor potential channel 4 (Mus musculus, UniProt Q9QUQ5); experiment: calcium entry via TRPC4 opening agents – cell-based, HEK293 TRPC4/mu-opioid, Fluo-4 calcium, dose response (AID 434937); assay type: functional
T1 sequence (Q9QUQ5 whole entry): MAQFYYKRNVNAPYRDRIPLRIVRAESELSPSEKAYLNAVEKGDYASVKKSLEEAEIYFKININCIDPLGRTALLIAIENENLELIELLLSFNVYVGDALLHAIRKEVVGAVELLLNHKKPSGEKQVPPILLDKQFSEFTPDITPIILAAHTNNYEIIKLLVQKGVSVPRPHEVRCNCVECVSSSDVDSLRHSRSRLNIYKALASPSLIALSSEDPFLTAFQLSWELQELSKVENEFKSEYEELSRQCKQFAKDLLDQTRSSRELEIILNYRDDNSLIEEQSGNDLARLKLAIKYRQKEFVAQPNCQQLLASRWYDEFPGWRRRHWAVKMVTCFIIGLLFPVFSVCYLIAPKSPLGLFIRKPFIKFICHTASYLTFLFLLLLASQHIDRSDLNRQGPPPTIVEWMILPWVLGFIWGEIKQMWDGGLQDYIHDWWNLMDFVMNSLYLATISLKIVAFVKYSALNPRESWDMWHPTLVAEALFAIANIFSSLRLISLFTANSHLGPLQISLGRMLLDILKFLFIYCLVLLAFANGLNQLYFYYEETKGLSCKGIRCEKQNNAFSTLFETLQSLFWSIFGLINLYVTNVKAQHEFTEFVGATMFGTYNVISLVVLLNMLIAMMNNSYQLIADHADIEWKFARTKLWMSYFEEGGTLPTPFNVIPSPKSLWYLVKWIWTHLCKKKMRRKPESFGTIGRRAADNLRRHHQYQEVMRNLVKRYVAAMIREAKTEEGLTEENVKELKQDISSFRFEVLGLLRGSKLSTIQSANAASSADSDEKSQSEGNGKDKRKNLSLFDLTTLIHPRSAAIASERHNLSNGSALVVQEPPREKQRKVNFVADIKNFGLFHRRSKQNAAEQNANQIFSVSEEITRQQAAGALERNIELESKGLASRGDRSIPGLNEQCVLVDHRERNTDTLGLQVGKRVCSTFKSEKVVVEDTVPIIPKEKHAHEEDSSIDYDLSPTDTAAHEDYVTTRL

Cytochrome P450 2C19 = Cytochrome P450 2C19 (Homo sapiens, UniProt P33261); experiment: Cytochrome panel assay with activity outcomes. Panel member name: p450-cyp2c19 Compounds with AC50 equal or less than 10 uM are considered active; assay type: functional
Sequence of Cytochrome P450 2C19 (P33261 whole entry): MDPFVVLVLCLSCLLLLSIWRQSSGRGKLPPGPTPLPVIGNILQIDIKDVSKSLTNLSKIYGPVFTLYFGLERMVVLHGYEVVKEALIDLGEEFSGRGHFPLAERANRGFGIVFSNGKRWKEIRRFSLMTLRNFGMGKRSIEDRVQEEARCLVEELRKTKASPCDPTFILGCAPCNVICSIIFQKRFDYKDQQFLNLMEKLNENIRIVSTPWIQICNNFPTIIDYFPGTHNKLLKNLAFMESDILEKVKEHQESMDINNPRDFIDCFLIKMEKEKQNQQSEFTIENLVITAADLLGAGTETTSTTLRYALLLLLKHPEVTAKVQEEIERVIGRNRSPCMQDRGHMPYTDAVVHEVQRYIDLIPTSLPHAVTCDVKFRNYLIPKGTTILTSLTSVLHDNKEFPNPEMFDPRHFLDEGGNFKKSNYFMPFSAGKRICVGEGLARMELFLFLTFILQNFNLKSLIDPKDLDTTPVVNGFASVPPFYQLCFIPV

[11] = NIH3T3 cell viability loss – ATP luminescence, mouse fibroblasts, counter-screen, dose response (AID 2010); assay type: functional, cell-based;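 note: cells exposed to compound for about 90 hours before reading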
[12] = Trypanosoma cruzi growth suppression in host cells – NIH3T3 host cells, beta-gal luminescence, confirmation (AID 2044); assay type: functional, cell-based;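 note: intracellular parasites grown in NIH/3T3 mouse fibroblasts as host cells; luminescent beta-galactosidase reporter signal from transgenic T. cruzi replicating inside host cells; inhibitors lower the luminescence signal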
[13] = biological target: T2, DNA repair protein RAD52 homolog (Homo sapiens, UniProt P43351); assay type: functional, biochemical
T2 sequence (P43351 whole entry): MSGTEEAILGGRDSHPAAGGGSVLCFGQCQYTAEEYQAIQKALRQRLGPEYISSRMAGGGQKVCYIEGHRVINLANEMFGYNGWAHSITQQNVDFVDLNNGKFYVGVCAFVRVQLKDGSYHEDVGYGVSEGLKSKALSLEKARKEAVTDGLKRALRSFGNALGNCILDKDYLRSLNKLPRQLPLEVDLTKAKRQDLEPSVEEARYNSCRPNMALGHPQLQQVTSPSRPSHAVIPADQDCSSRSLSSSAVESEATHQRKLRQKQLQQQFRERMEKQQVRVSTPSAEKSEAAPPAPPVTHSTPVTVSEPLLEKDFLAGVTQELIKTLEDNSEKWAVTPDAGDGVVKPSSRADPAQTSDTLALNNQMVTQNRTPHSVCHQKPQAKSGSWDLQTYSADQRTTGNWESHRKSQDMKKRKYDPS

H9c2 = experiment: cells; assay type: functional, cell-based; conditions: Rattus norvegicus, H9c2, Myocardium;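 note: confirmatory concentration-response retest of ultra-high-throughput screening hits for modulation of myocardial damage; cell death induced by hydrogen peroxide oxidative stress; compound pretreatment for 60 min then peroxide exposure for 2 h; potency is for protecting the cells against peroxide damage rather than for killing them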
[14] = biological target: T3, Rac GTPase-activating protein 1 (Homo sapiens, UniProt Q9H0H5); experiment: blockers of MgcRacGAP-driven Rac1 GTP hydrolysis – biochemical, ADP Hunter fluorescence, primary and confirmatory, confirmation (AID 624330); assay type: functional
T3 sequence (Q9H0H5 whole entry): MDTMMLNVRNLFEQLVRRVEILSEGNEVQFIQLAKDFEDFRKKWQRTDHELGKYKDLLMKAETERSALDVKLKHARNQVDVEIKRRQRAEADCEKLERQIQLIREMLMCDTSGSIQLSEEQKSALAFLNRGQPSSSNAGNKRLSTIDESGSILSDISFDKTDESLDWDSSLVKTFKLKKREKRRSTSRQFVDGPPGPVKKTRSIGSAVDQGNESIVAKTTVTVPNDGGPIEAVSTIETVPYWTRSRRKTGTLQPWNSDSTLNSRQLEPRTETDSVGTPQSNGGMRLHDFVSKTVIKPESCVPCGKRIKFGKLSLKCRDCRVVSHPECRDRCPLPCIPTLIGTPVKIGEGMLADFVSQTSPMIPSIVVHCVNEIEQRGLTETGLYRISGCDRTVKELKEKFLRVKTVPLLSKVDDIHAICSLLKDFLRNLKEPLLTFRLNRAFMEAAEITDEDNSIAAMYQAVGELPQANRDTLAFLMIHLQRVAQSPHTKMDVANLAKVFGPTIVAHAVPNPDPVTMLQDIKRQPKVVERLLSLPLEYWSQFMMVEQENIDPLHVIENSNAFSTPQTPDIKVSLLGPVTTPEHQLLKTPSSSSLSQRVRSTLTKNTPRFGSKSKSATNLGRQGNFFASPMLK

[15] = blockers of CRF-binding protein–CRF-R2 complex – cell-based, uHTS hits, 384-well, dose response (AID 651639); assay type: functional, Homo sapiens; conditions: read-out: IC50_Mean
[16] = biological target: T4, Corticotropin-releasing factor receptor 2/Corticotropin-releasing factor-binding protein (Homo sapiens, UniProt P24387+Q13324); experiment: Dose Response confirmation of uHTS hits for small molecule antagonists of the CRF-binding protein and CRF-R2 receptor complex.; assay type: functional; conditions: read-out: IC50_Mean
T4 sequence (Q13324 whole entry): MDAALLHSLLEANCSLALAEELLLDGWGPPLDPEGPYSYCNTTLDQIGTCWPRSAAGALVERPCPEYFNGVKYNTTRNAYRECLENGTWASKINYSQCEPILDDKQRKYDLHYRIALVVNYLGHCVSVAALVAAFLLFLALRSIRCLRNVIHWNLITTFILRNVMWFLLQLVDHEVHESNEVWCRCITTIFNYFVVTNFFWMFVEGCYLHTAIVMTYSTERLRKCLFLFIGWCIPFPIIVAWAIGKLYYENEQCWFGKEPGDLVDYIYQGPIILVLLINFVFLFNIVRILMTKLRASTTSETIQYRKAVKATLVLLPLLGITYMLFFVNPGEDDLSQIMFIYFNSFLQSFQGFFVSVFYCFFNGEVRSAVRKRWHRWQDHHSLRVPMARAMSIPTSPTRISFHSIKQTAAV
T4 sequence (P24387 whole entry): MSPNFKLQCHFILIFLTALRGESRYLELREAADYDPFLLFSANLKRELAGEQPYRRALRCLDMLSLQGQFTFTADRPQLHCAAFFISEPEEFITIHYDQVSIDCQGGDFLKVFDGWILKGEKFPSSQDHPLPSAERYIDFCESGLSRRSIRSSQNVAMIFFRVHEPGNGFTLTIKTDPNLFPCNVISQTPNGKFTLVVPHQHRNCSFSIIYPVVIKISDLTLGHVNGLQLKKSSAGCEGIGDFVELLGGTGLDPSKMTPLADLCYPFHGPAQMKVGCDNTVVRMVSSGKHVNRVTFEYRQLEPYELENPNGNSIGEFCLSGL

[17] = biological target: T4, Corticotropin-releasing factor receptor 2/Corticotropin-releasing factor-binding protein; experiment: activators of CRF receptor 2 with binding protein – uHTS hits, confirmation (AID 602473); assay type: functional; conditions: read-out: EC50_Mean
[18] = biological target: Eukaryotic translation initiation factor 4E (Mus musculus, UniProt P63073); experiment: blockers of eIF4G binding by eIF4E – biochemical, TR-FRET, dose response (AID 855); assay type: functional;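 note: potency for disrupting eIF4E binding to eIF4GI seen as loss of FRET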
[19] = biological target: T5, Calpain-2 catalytic subunit (Sus scrofa, UniProt P43367); experiment: m-calpain protease blockers, concentration series – biochemical, fluorogenic peptide substrate, dose response (AID 1420); assay type: functional
T5 sequence (P43367 whole entry): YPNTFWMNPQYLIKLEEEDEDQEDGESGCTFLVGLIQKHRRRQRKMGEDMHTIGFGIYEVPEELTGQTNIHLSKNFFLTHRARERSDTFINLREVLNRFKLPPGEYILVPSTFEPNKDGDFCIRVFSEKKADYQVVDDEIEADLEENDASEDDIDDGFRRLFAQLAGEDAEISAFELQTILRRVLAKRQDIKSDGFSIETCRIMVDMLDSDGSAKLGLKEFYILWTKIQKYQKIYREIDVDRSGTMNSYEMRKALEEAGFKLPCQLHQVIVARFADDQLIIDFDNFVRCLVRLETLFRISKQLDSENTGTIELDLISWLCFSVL

[20] = biological target: T6, Probable nicotinate-nucleotide adenylyltransferase (Staphylococcus aureus (strain N315), UniProt P65502); assay type: functional, Staphylococcus aureus subsp. aureus N315; conditions: read-out: IC50_Mean;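 for IC50 Mean: confirmatory dose-response retesting of NadD inhibitor hits first found in an ultra-high-throughput screen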
T6 sequence (P65502 whole entry): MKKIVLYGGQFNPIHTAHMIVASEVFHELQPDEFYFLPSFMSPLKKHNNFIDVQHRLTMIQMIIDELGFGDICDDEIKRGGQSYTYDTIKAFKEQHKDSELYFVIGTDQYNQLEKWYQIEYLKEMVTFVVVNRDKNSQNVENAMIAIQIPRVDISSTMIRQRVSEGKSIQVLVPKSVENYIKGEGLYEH

[21] = biological target: T6, Probable nicotinate-nucleotide adenylyltransferase; assay type: functional, Staphylococcus aureus subsp. aureus N315
Vero = experiment: viability of Vero cells under compound – cytotoxicity control for flavivirus capping enzyme inhibitors (AID 588742); assay type: functional; conditions: Chlorocebus sabaeus

Sequence of Mitogen-activated protein kinase 10 (P53779 whole entry): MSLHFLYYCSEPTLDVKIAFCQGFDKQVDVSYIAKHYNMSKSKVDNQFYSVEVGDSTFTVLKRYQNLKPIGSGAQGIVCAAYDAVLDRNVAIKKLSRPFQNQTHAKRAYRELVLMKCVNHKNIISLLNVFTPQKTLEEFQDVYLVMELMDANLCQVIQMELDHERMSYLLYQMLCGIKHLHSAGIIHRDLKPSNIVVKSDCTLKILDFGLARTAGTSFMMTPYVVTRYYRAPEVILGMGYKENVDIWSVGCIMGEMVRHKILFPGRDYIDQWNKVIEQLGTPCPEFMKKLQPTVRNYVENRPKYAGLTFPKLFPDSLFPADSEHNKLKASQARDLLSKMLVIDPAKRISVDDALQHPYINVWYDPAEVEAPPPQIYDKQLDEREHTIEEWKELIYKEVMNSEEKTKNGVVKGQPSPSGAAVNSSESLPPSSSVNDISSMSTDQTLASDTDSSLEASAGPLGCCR

COc1ccc(COC(=O)c2[nH]nc3ccccc23)cc1F
IC50 [1]: 11.4 µM (not active)

CC(C)CNC(=O)COC(=O)c1ccccc1OCC(=O)Nc1ccc(Br)cc1
EC50 [2]: > 79.4 µM (not active) | EC50 [3]: > 79.4 µM (not active) | EC50 [4]: > 79.4 µM (not active)

O=C(N[C@H](C(=O)N1CCC[C@H]1C(=O)NCCc1ccccc1Cl)c1ccccc1)c1cccs1
IC50 (cells [5]): > 29.9 µM (inactive) | EC50 (cells [6]): > 29.9 µM (inactive)

Cc1ccc(-c2csc(NC(=O)Cc3cccs3)n2)cc1C
EC50 (H4): 15.1 µM (active) | IC50 [7]: > 100 µM (active) | EC50 [8]: 28.7 µM (active) | EC50 [9]: 10.2 µM (active)

Cc1sc(NC(=O)c2ccccc2)c(C(=O)NCCN(C)C)c1C
EC50 [10]: 3.35 µM (active) | IC50 [7]: > 100 µM (active) | AC50 (Cytochrome P450 2C19): inconclusive

c1ccc2c(c1)CC/C2=N/Nc1nc2ccccc2[nH]1
EC50 [11]: > 30 µM (not active) | EC50 [2]: > 79.4 µM (not active) | EC50 [3]: > 79.4 µM (not active) | EC50 [12]: 2.6 µM (active) | EC50 [4]: > 79.4 µM (not active)

COc1cc2c(cc1OC)CN1CCc3cc(OC)c(OC)cc3C1C2 (configuration not stated)
AC50 [13]: 4.49 µM (active)

CN(C)CCCNc1ccc(-c2nnc(O)c3ccccc23)cc1[N+](=O)[O-]
IC50 (H9c2): 13.9 µM (active) | AC50 [13]: 20.5 µM (active)

COc1cc(C=C2C(=O)c3ccccc3C2=O)cc(OC)c1OC
IC50 [14]: 126 µM (active) | IC50 [15]: 1.46 µM (active) | IC50 [16]: 1.59 µM (active) | EC50 [17]: > 53 µM (inactive)

COc1ccccc1OCc1nc2ccccc2[nH]1
EC50 [2]: > 79.4 µM (not active) | EC50 [3]: > 79.4 µM (not active) | EC50 [4]: > 79.4 µM (not active)

O=C(C1=C[C@@H](c2ccc(C(F)(F)F)cc2)C[C@@H](OCc2ccc(CO)cc2)O1)N1CCOCC1
EC50 [2]: > 79.4 µM (not active) | EC50 [3]: > 79.4 µM (not active) | EC50 [4]: > 79.4 µM (not active)

O=C(N/C(=C/c1ccc(Cl)cc1)c1nc2ccccc2[nH]1)c1ccco1
IC50 [7]: > 100 µM (active)

Cn1ncc2c(NCc3ccccc3)ncnc21
IC50 [1]: > 31 µM (not active)

CN1CCN(CCCNC(=O)c2ccc(/C=C3\Sc4ccccc4N(Cc4ccccc4F)C3=O)cc2)CC1
EC50 [11]: 6.91 µM (active) | IC50 [18]: 50 µM (inactive) | EC50 [12]: 0.3 µM (active) | AC50 [13]: 5.23 µM (active)

CC(C)n1c(=S)[nH]c2scc(-c3cccs3)c2c1=O
IC50 [19]: 18.2 µM (not active) | IC50 [20]: 34 µM (active) | IC50 [21]: 13.5 µM (active) | CC50 (Vero): > 40 µM (active)

O=C1CC(c2ccco2)CC(=O)C1=CNc1ccc(Br)cc1 (configuration not stated)
IC50 [7]: > 100 µM (active)
